Experimental data from patent US20040235855A1, “Phospholipase C inhibitors for use in treating inflammatory disorders” (priority 2003, published 2004).

These compounds were tested against T1, human PLC-β2 (Homo sapiens, UniProt Q00722) (assay: PLC assay using FlashPlates (96-well, immobilized [3H]PIP2 substrate)). Details: purified recombinant human PLC-β2 or cytosolic human PLC-β2; hydrolysis of [3H]PIP2.
T1 construct: made in house; host or cells: Sf9 cells (Spodoptera frugiperda), recombinant baculovirus
T1 sequence (Q00722 whole entry): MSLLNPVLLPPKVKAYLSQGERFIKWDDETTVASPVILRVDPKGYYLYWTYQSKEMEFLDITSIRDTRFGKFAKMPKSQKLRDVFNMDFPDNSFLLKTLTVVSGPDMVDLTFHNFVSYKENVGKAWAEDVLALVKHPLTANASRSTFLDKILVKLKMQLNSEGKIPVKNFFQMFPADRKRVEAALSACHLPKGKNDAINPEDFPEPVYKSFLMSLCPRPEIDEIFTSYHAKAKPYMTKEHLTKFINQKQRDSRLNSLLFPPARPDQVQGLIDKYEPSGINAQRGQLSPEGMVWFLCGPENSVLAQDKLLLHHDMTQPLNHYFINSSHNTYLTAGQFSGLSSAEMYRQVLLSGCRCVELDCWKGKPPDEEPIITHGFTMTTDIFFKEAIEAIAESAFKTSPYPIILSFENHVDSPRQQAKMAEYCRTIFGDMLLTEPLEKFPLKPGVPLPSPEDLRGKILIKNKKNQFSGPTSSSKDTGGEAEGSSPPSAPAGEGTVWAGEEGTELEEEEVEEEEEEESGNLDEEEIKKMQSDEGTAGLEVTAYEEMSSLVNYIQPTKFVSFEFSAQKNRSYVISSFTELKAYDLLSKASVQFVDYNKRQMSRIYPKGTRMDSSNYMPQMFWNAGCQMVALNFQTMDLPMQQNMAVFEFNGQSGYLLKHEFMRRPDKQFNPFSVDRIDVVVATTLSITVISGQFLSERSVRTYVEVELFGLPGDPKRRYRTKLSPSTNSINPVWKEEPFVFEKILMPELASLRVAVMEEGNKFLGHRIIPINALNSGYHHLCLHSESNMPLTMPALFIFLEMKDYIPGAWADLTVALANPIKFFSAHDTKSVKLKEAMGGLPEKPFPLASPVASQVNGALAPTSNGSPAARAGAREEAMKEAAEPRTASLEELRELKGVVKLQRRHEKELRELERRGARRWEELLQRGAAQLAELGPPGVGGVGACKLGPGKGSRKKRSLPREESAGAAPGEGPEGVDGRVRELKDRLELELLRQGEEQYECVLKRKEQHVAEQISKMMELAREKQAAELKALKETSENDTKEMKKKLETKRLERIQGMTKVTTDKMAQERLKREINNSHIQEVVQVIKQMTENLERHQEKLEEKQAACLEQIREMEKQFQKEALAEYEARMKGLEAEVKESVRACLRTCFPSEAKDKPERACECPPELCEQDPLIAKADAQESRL
Type: biochemical
Text: The hydrolysis of phosphatidylinositol-4,5-bisphosphate (PIP2) by a specific phospholipase C-β2 (PLC-β2) produces two intracellular messengers, diacylglycerol (DAG) and inositol 1,4,5-trisphosphate (IP3), which mediate the activation of protein kinase C and intracellular Ca^2+ release. A conventional organic solvent extraction method is widely used for PLC assays to isolate IP3 from the substrate PIP2. The conventional PLC-β2 assay, however is terminated by addition of acidified organic solvents and subsequent extraction and phase separation. […] Accordingly, a preferred method to test the compounds of the present invention, was developed utilizing a 96-well plate assay for PLC-β2 using immobilized radiolabeled substrate to quantitatively measure the reduction in the substrate level without a need for organic solvent extraction. The automated PLC-β2 assay described herein provides a convenient method for quantitative measurement of phospholipase C activities in a high throughput fashion. Ninety-six well Phospholipid FlashPlates were coated with 0.2 mL of 50 mM Tris/HCl (pH 7.4), 0.01% Ac-BSA and 50,000 cpm of […] (phosphatidylinositol-4,5-bisphosphate) at 4° C. for 72 h. The wells were aspirated and washed twice with PBS. The reactions were conducted directly in the wells in PLC reaction buffer containing 50 mM Tris/HCl (pH 7.2), 2.75 mM EDTA (pH 7.3), 80 mM KCl, 10 mM LiCl, 0.04% DOC and 2 mM CaCl2 in the absence or presence of the purified recombinant human PLC-β2 (prepared as described hereafter) or cytosolic human PLC-β2 from […]. Reduction of radioactivity was monitored by a Packard TopCount instrument (Packard Instrument Company, Conn., USA). […] The cells were grown in Grace's media supplemented with 10% (v/v) fetal bovine serum, 3.3 g/l yeastolate, 3.3 g/l lactalbumin hydrosylate, glutamine (6.4 mM final), 50 μg/ml gentamicin, and 50 μg/ml kanamycin. Suspension of Sf9 cells (1.0×10^6 cells/ml) were infected with 5 pfu/cell of recombinant baculovirus encoding PLC-β2 and incubated at 27° C. for 72 h. The cells were collected by centrifugation (500×g, 7 min, 4° C.) and disrupted by hypotonic lysis buffer containing 20 mM Tris/HCl, pH 7.4, 5 mM MgCl2, 2 mM EGTA, 200 μM PMSF, 200 μM benzamidine and 1 μM pepstatin A. The lysate was sonicated on ice and the nuclei and unbroken cells removed by centrifigation (500×g, 5 min, 4C.). The supernatant was recovered and clarified by centrifugation (34,000 rpm, 60 min, 4C.). The supernatant was used as a crude cytosolic fraction (Paterson, A., Boyer, J. L., Watts, V. J., Morris, A. J., Price, […]. (1995) Concentration of enzyme-dependent activation of PLC β1 and PLC β2 by Gα11 and βγ subunits. Cellular Signalling 7, 709-720). Crude cytosol prepared from Sf9 cells expressing PLC-β2 was purified initially by chromatography on a 10 ml column of Q-Sepharose FF, equilibrated in buffer A (25 mM HEPES, pH 7.2,2 mM DTT, 2 mM EDTA, 2 mM EGTA, 200 μM PMSF, 200 μM benzamidine, 1 μM pepstatin A containing 10 mM NaCl). The column was washed with 20 ml of equilibration buffer and eluted with a 200-ml gradient of 110-410 mM NaCl in buffer A. The fractions containing PLC activity were pooled and diluted with buffer A. The diluted enzyme was applied to a 4 ml column of heparin-SepharoseCL-6B equilibrated in buffer A and the column washed with 70 ml of buffer A. The column was eluted with 80 ml of gradient of 0-1.0 M NaCl in buffer A, the column eluate collected in 3 ml fractions. […]

Row | Compound | IC50
1 | COc1ccccc1N1CCN(c2ccc(C(N)=O)cc2NC(=O)Nc2ccccc2)CC1 [Cpd 1, 4-[4-(2-methoxyphenyl)-1-piperazinyl]-3-[[(phenylamino)carbonyl]amino]-benzamide] | 23.4 µM
2 | NC(=O)c1ccc(N2CCN(Cc3ccccc3)CC2)c(NC(=O)Nc2ccccc2)c1 [Cpd 2, 3-[[(phenylamino)carbonyl]amino]-4-[4-(phenylmethyl)-1-piperazinyl]-benzamide] | > 25 µM
3 | NC(=O)c1ccc(N2CCN(C(c3ccc(F)cc3)c3ccc(F)cc3)CC2)c(NC(=O)Nc2ccccc2)c1 [Cpd 3, 4-[4-[bis(4-fluorophenyl)methyl]-1-piperazinyl]-3-[[(phenylamino)carbonyl]amino]-benzamide] | 1.5 µM
4 | NC(=O)c1ccc(N2CCN(C(c3ccc(F)cc3)c3ccc(F)cc3)CC2)c(NC(=O)Nc2ccccc2F)c1 [Cpd 4, 4-[4-[bis(4-fluorophenyl)methyl]-1-piperazinyl]-3-[[[(2-fluorophenyl)amino]carbonyl]amino]-benzamide] | 2.1 µM
5 | NC(=O)c1ccc(N2CCN(C(c3ccccc3)c3ccccc3)CC2)c(NC(=O)Nc2ccc([N+](=O)[O-])cc2)c1 [Cpd 5, 4-[4-(diphenylmethyl)-1-piperazinyl]-3-[[[(4-nitrophenyl)amino]carbonyl]amino]-benzamide] | 9.9 µM
6 | NC(=O)c1ccc(N2CCN(C(c3ccccc3)c3ccccc3)CC2)c(NC(=O)NCc2ccccc2)c1 [Cpd 6, 4-[4-(diphenylmethyl)-1-piperazinyl]-3-[[[(phenylmethyl)amino]carbonyl]amino]-benzamide] | 9 µM
7 | Cc1cc(C)cc(NC(=O)Nc2cc(C(N)=O)ccc2N2CCN(C(c3ccccc3)c3ccccc3)CC2)c1 [Cpd 7, 3-[[[(3,5-dimethylphenyl)amino]carbonyl]amino]-4-[4-(diphenylmethyl)-1-piperazinyl]-benzamide] | 5.3 µM
8 | NC(=O)c1ccc(N2CCN(C(c3ccccc3)c3ccccc3)CC2)c(NC(=O)Nc2ccccc2)c1 [Cpd 8, 4-[4-(diphenylmethyl)-1-piperazinyl]-3-[[(phenylamino)carbonyl]amino]-benzamide] | 1.2 µM
9 | NC(=O)c1ccc(N2CCN(C(c3ccccc3)c3ccccc3)CC2)c(NC(=O)NC2CCCCC2)c1 [Cpd 10, 3-[[(cyclohexylamino)carbonyl]amino]-4-[4-(diphenylmethyl)-1-piperazinyl]-benzamide] | 14 µM
10 | C[C@H](NC(=O)Nc1cc(C(N)=O)ccc1N1CCN(C(c2ccccc2)c2ccccc2)CC1)c1ccccc1 [Cpd 11, 4-[4-(diphenylmethyl)-1-piperazinyl]-3-[[[[(1S)-1-phenylethyl]amino]carbonyl]amino]-benzamide] | 8.4 µM
11 | CCCCNC(=O)Nc1cc(C(N)=O)ccc1N1CCN(C(c2ccccc2)c2ccccc2)CC1 [Cpd 12, 3-[[(butylamino)carbonyl]amino]-4-[4-(diphenylmethyl)-1-piperazinyl]-benzamide] | 14.5 µM
12 | NC(=O)c1ccc(N2CCN(C(c3ccccc3)c3ccccc3)CC2)c(NC(=O)Nc2ccc(F)cc2)c1 [Cpd 13, 4-[4-(diphenylmethyl)-1-piperazinyl]-3-[[[(4-fluorophenyl)amino]carbonyl]amino]-benzamide] | 1.3 µM
13 | NC(=O)c1ccc(N2CCN(C(c3ccc(F)cc3)c3ccc(F)cc3)CC2)c(NC(=O)Nc2ccc3c(c2)OCO3)c1 [Cpd 14, 3-[[(1,3-benzodioxol-5-ylamino)carbonyl]amino]-4-[4-[bis(4-fluorophenyl)methyl]-1-piperazinyl]-benzamide] | 3.1 µM
14 | Cc1ccc(NC(=O)Nc2cc(C(N)=O)ccc2N2CCN(C(c3ccc(F)cc3)c3ccc(F)cc3)CC2)c(C)c1 [Cpd 15, 4-[4-[bis(4-fluorophenyl)methyl]-1-piperazinyl]-3-[[[(2,4-dimethylphenyl)amino]carbonyl]amino]-benzamide] | 4.8 µM
15 | CC(NC(=O)Nc1cc(C(N)=O)ccc1N1CCN(C(c2ccc(F)cc2)c2ccc(F)cc2)CC1)c1ccccc1 (centres unmarked) [Cpd 16, 4-[4-[bis(4-fluorophenyl)methyl]-1-piperazinyl]-3-[[[(1-phenylethyl)amino]carbonyl]amino]-benzamide] | 6 µM
16 | COc1ccccc1NC(=O)Nc1cc(C(N)=O)ccc1N1CCN(C(c2ccc(F)cc2)c2ccc(F)cc2)CC1 [Cpd 17, 4-[4-[bis(4-fluorophenyl)methyl]-1-piperazinyl]-3-[[[(2-methoxyphenyl)amino]carbonyl]amino]-benzamide] | 2.8 µM
17 | COc1ccc(NC(=O)Nc2cc(C(N)=O)ccc2N2CCN(C(c3ccc(F)cc3)c3ccc(F)cc3)CC2)c(OC)c1 [Cpd 18, 4-[4-[bis(4-fluorophenyl)methyl]-1-piperazinyl]-3-[[[(2,4-dimethoxyphenyl)amino]carbonyl]amino]-benzamide] | 4.6 µM
18 | CN(C)c1ccc(NC(=O)Nc2cc(C(N)=O)ccc2N2CCN(C(c3ccc(F)cc3)c3ccc(F)cc3)CC2)cc1 [Cpd 19, 4-[4-[bis(4-fluorophenyl)methyl]-1-piperazinyl]-3-[[[[4-(dimethylamino)phenyl]amino]carbonyl]amino]-benzamide] | 2.9 µM
19 | COc1ccc(NC(=O)Nc2cc(C(N)=O)ccc2N2CCN(C(c3ccc(F)cc3)c3ccc(F)cc3)CC2)cc1 [Cpd 20, 4-[4-[bis(4-fluorophenyl)methyl]-1-piperazinyl]-3-[[[(4-methoxyphenyl)amino]carbonyl]amino]-benzamide] | 4.3 µM
20 | NC(=O)c1ccc(N2CCN(C(c3ccc(F)cc3)c3ccc(F)cc3)CC2)c(NC(=S)Nc2ccccc2)c1 [Cpd 22, 4-[4-[bis(4-fluorophenyl)methyl]-1-piperazinyl]-3-[[(phenylamino)thioxomethyl]amino]-benzamide] | 1.2 µM
21 | CN1CCN(C(=O)c2ccc(N3CCN(C(c4ccccc4)c4ccccc4)CC3)c(NC(=O)Nc3ccccc3)c2)CC1 [Cpd 23, N-[2-[4-(diphenylmethyl)-1-piperazinyl]-5-[(4-methyl-1-piperazinyl)carbonyl]phenyl]-N′-phenylurea] | 4.9 µM
22 | O=C(Nc1ccccc1)Nc1cc(C(=O)N2CCCNCC2)ccc1N1CCN(C(c2ccccc2)c2ccccc2)CC1 [Cpd 24, N-[2-[4-(diphenylmethyl)-1-piperazinyl]-5-[(hexahydro-1H-1,4-diazepin-1-yl)carbonyl]phenyl]-N′-phenylurea] | 0.87 µM
23 | O=C(Nc1cc(C(=O)N2CCCNCC2)ccc1N1CCN(C(c2ccccc2)c2ccccc2)CC1)NC1CCCCC1 [Cpd 25, N-cyclohexyl-N′-[2-[4-(diphenylmethyl)-1-piperazinyl]-5-[(hexahydro-1H-1,4-diazepin-1-yl)carbonyl]-phenyl]urea] | 2.6 µM
24 | NCCNC(=O)c1ccc(N2CCN(C(c3ccccc3)c3ccccc3)CC2)c(NC(=O)Nc2ccccc2)c1 [Cpd 26, N-(2-aminoethyl)-4-[4-(diphenylmethyl)-1-piperazinyl]-3-[[(phenylamino)carbonyl]amino]-benzamide] | 1.9 µM
25 | NCCNC(=O)c1ccc(N2CCN(C(c3ccccc3)c3ccccc3)CC2)c(NC(=O)NC2CCCCC2)c1 [Cpd 27, N-(2-aminoethyl)-3-[[(cyclohexylamino)carbonyl]amino]-4-[4-(diphenylmethyl)-1-piperazinyl]-benzamide] | 2.8 µM
26 | CN1CCN(C(=O)c2ccc(N3CCN(C(c4ccccc4)c4ccccc4)CC3)c(NC(=O)NC3CCCCC3)c2)CC1 [Cpd 28, N-cyclohexyl-N′-[2-[4-(diphenylmethyl)-1-piperazinyl]-5-[(4-methyl-1-piperazinyl)carbonyl]-phenyl]urea] | 5.6 µM
